Test results taken from patent US20140187556A1, “ANTI-AMYLOID COMPOUNDS AND METHODS” (Treventis Corporation, priority 2011, published 2014).

What was measured:
Aβ40 = target: T1, Aβ40 (Homo sapiens, UniProt P05067); experiment: Thioflavin T (ThT) Aβ aggregation assay; type: biochemical; conditions: for IC50: 20 μM Aβ40, 37 degrees C; for inhibition at 50 µM: 50 μM compound
T1 construct: pre-treated Aβ40 (40 μM in 20 mM Tris, pH 7.4)
Experimental: Aβ40 (1.0 mg) was pre-treated in a 1.5 mL microfuge tube with HFIP (1 mL) and sonicated for 20 min to disassemble any pre-formed Aβ aggregates. The HFIP was removed with a stream of argon and the Aβ dissolved in Tris base (5.8 mL, 20 mM, pH ˜10). The pH was adjusted to 7.4 with concentrated HCl (−10 μL) and the solution filtered using a syringe filter (0.2 μm) before being used.
The kinetic ThT assay for Aβ aggregation is similar to that of Chalifour et al (Chalifour et al, 2003, J. Biol. Chem. 278:34874-81). Briefly, pre-treated Aβ40 (40 μM in 20 mM Tris, pH 7.4), was diluted with an equal volume of 8 μM ThT in Tris (20 mM, pH 7.4, 300 mM NaCl). Aliquots of Aβ/ThT (200 μL) were added to wells of a black polystyrene 96-well plate, followed by 2 μL of a compound in DMSO (variable concentration), or DMSO alone (controls). Incubations were performed in triplicate and were taken to contain 20 μM Aβ, various concentration of compound in 20 mM Tris, pH 7.4, 150 mM NaCl, 1% DMSO. Plates were covered with clear polystyrene lids and incubated at 37 degrees C. in a Tecan Genios microplate reader. Fluorescence readings (λex=450 nm, λem=480 nm) were taken every 15 min., after first shaking at high intensity for 15 s and allowing to settle for 10 s before each reading. Active compounds attenuated the increase in fluorescence over time that occurred in controls.

[1] = Metabolic stability in mouse liver microsomes; type: in vitro ADME; conditions: 1 μM compound, 0.5 mg/mL microsomal protein, 1 mM NADPH
Experimental: This assay is used to determine the percent remaining and intrinsic clearance of a test compound incubated with pooled mouse liver microsomes in the presence of NADPH. Further details on this method may be found in Jeffrey P, et al., Utility of metabolic stability screening: comparison of in vitro and in vivo clearance. enobiotica. 2001 August-September; 31(8-9):591-8 and Lin J H, et al., Role of pharmacokinetics and metabolism in drug discovery and development. Pharmacol Rev. 1997; 49(4):403-49; each of which is hereby incorporated by reference. Test compound was formulated in 300 μL of DMSO at 10 mM and was diluted to 1 μM with final concentration of organic solvent <0.25% for the experiment. Pooled liver microsomes were prepared from male mice, with 1 mM NADPH. Test compound was incubated at 37 degrees Celsius in buffer containing 0.5 mg/mL microsomal protein; the reaction was initiated by adding cofactors and sampled at 0, 10, 20, 30, and 60 minutes. A positive control (5 μM testosterone) was incubated and initiated in parallel for quality control. Samples were analyzed using an LTQ-Orbitrap XL mass spectrometer; HRMS was used to determine the peak area response ratio (peak area corresponding to test compound or control divided by that of an analytical internal standard) without running a standard curve.
Results were reported for selected compounds in the table of Example 1, as % test compound remaining after 60 minutes. Compounds which have less than about 5% remaining are not considered to be metabolically stable in mouse liver microsomes, while compounds with more than about 5% remaining are considered to be metabolically stable in mouse liver microsomes.

[2] = Blood-brain barrier penetration potential using MDR1-MDCK cell monolayers; type: in vitro ADME; conditions: dog; for Papp A→B at 120 min, 5 µM: MDCK-MDR1, apical dosing, pH 7.4, read-out: Papp A-B × 10^−6 cm/s; for Papp B→A at 120 min, 5 µM: MDCK-MDR1, basolateral dosing, pH 7.4, read-out: Papp B-A × 10^−6 cm/s; for efflux ratio at 120 min, 5 µM: MDCK-MDR1, pH 7.4, read-out: Efflux ratio (Papp B-A)/(Papp A-B)
Source text: This assay is used to determine the blood-brain barrier (BBB) penetration potential of a test compound using MDR1-MDCK cell monolayers. Further details on this method may be found in Taub M E, et al., Functional assessment of multiple Pglycoprotein (P-gp) probe substrates: Influence of cell line and modulator concentration on P-gp activity. Drug Metab Dispos. 2005 November; 33(11): 1679-87 and Wang Q, et al., Evaluation of the MDR-MDCK cell line as a permeability screen for the blood-brain barrier. Int J. Pharm. 2005 Jan. 20; 288(2):349-59; each of which is hereby incorporated by reference. Test compound was formulated in 300 μL of DMSO at 10 mM and diluted to 5 μM in HBSSg with maximum DMSO concentration not greater than 1%. Confluent monolayers of MDR1-MDCK cells, 7 to 11 days old, were used. A receiver well, having apical and basolateral sides at pH 7.4, was used with 1% BSA in modified Hanks buffer (HBSSg). Two monolayers were dosed with test compound in each direction (N=2). Apical side dosing was used for A-B assessment and basolateral side was used for B-A assessment; taken together, this information provides a bidirectional permeability potential. Apical and basolateral sides were sampled at 120 minutes and concentrations of test compound were determined using an LC-MS/MS method with a minimum 4 point calibration curve. Apparent permeability (Papp) in both directions (A-B and B-A) was calculated, as was the efflux ratio (Papp B-A)/(Papp A-B).

T1 sequence (P05067 672-711 limits assumed): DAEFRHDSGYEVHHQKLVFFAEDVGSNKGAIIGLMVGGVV

| SMILES | IC50 (Aβ40) | Stability in mouse liver microsomes (% test compound remaining after 60 min) [1] | further results |
| --- | --- | --- | --- |
| CC(C)Nc1cc(N2CCN(C(=O)c3ccccc3)CC2)cc(C(F)(F)F)c1 [TRV 1169, (4-(3-(isopropylamino)-5-(trifluoromethyl)phenyl)piperazin-1-yl)(phenyl)methanone] | > 50 µM |  |  |
| O=C(c1ccccc1)N1CCN(c2cc(F)cc(N3CCCC3)c2)CC1 [TRV 1170, (4-(3-fluoro-5-(pyrrolidin-1-yl)phenyl)piperazin-1-yl)(phenyl)methanone] | > 50 µM |  |  |
| O=C(c1ccccc1)N1CCN(c2cc(F)c(C(F)(F)F)c(N3CCCC3)c2)CC1 [TRV 1175, (4-(3-fluoro-5-(pyrrolidin-1-yl)-4-(trifluoromethyl)phenyl)piperazin-1-yl)(phenyl)methanone] | > 50 µM |  |  |
| CC(C)Nc1cc(N2CCN(C(=O)c3ccccc3)CC2)cc(F)c1C(F)(F)F [TRV 1176, (4-(3-fluoro-5-(isopropylamino)-4-(trifluoromethyl)phenyl)piperazin-1-yl)(phenyl)methanone] | > 50 µM |  |  |
| O=C(c1ccccc1)N1CCN(c2ccc(-n3cnnn3)c(NCc3ccccc3)c2)CC1 [TRV 1178, (4-(3-(benzylamino)-4-(1H-tetrazol-1-yl)phenyl)piperazin-1-yl)(phenyl)methanone] | > 50 µM |  |  |
| CC(C)Nc1cc(F)cc(N2CCN(C(=O)c3ccccc3)CC2)c1 [TRV 1179, (4-(3-fluoro-5-(isopropylamino)phenyl)piperazin-1-yl)(phenyl)methanone] | > 50 µM |  |  |
| O=C(c1ccccc1)N1CCN(c2ccc(OC(F)F)c(NCc3ccccc3)c2)CC1 [TRV 1184, (4-(3-(benzyl amino)-4-(difluoromethoxy)phenyl)piperazin-1-yl)(phenyl)methanone] | > 50 µM |  |  |
| O=C(c1ccccc1)N1CCN(c2ccc(OC(F)(F)F)c(NCc3ccccc3)c2)CC1 [TRV 1185, (4-(3-(benzylamino)-4-(trifluoromethoxy)phenyl)piperazin-1-yl)(phenyl)methanone] | > 50 µM |  |  |
| O=C(c1ccccc1)N1CCN(c2ccc(S(=O)(=O)C(F)(F)F)c(NCc3ccccc3)c2)CC1 [TRV 1186, (4-(3-(benzylamino)-4-((trifluoromethyl)sulfonyl)phenyl)piperazin-1-yl)(phenyl)methanone] | > 50 µM |  |  |
| CC(O)c1cccc(-c2ccc(OC(F)F)c(NCc3ccccc3)c2)c1 (centres unmarked) [TRV 1192, 1-(3′-(benzylamino)-4′-(difluoromethoxy)biphenyl-3-yl)ethanol] | ~50 µM |  |  |
| CC(O)c1cccc(-c2ccc(C#N)c(N3CCCC3)c2)c1 (centres unmarked) [TRV 1248] | ~50 µM |  | inhibition at 50 µM (Aβ40): 47.9% |

Now from value to compound, other results behind:

| IC50 (Aβ40) | Stability in mouse liver microsomes (% test compound remaining after 60 min) [1] | SMILES | further results |
| --- | --- | --- | --- |
| 4.11 ± 1.2 µM | <1.0% | CN(C)C(=O)c1cccc(-c2ccc([N+](=O)[O-])c(NCc3ccccc3)c2)c1 [TRV 1102, 3′-(benzylamino)-N,N-dimethyl-4′-nitrobiphenyl-3-carboxamide] |  |
| 0.7 ± 0.9 µM | <1.0% | CCN(CC)C(=O)c1cccc(-c2ccc([N+](=O)[O-])c(NCc3ccccc3)c2)c1 [TRV 1110, 3′-(benzylamino)-N,N-diethyl-4′-nitrobiphenyl-3-carboxamide] |  |
| 0.33 ± 0.44 µM | <1.0% | O=C(c1cccc(-c2ccc([N+](=O)[O-])c(NCc3ccccc3)c2)c1)N1CCCCC1 [TRV 1111, (3′-(benzyl amino)-4′-nitrobiphenyl-3-yl)(piperidin-1-yl)methanone] |  |
| 1.41 ± 1.11 µM | <1.0% | CC(C)N(C(=O)c1cccc(-c2ccc([N+](=O)[O-])c(NCc3ccccc3)c2)c1)C(C)C [TRV 1112, 3′-(benzylamino)-N,N-diisopropyl-4′-nitrobiphenyl-3-carboxamide] |  |
| 2.67 ± 0.1 µM | <1.0% | CN1CCN(C(=O)c2cccc(-c3ccc([N+](=O)[O-])c(NCc4ccccc4)c3)c2)CC1 [TRV 1115, (3′-(benzyl amino)-4′-nitrobiphenyl-3-yl)(4-methylpiperazin-1-yl)methanone] |  |
| 2.94 ± 1.64 µM | <1.0% | O=C(c1cccc(-c2ccc([N+](=O)[O-])c(NCc3ccccc3)c2)c1)N1CCCC1 [TRV 1117, (3′-(benzylamino)-4′-nitrobiphenyl-3-yl)(pyrrolidin-1-yl)methanone] |  |
| 24.6 ± 6.83 µM | <1.0% | NS(=O)(=O)c1ccccc1-c1ccc([N+](=O)[O-])c(NCc2ccccc2)c1 [TRV 1121, 3′-(benzylamino)-4′-nitro-[1,1′-biphenyl]-2-sulfonamide] |  |
| 14.1 ± 3.07 µM | 1.5% | NS(=O)(=O)c1cccc(-c2ccc([N+](=O)[O-])c(NCc3ccccc3)c2)c1 [TRV 1122, 3′-(benzylamino)-4′-nitro-[1,1′-biphenyl]-3-sulfonamide] | Papp A→B at 120 min, 5 µM [2]: 27.5 ×10⁻⁶ cm/s; Papp B→A at 120 min, 5 µM [2]: 52.5 ×10⁻⁶ cm/s; efflux ratio at 120 min, 5 µM [2]: 1.9 |
| 1.1 ± 0.33 µM | 41% | O=[N+]([O-])c1ccc(-c2ccc(-c3nn[nH]n3)cc2)cc1NCc1ccccc1 [TRV 1126, N-benzyl-4-nitro-4′-(2H-tetrazol-5-yl)-[1,1′-biphenyl]-3-amine] | Papp A→B at 120 min, 5 µM [2]: 34.1 ×10⁻⁶ cm/s; Papp B→A at 120 min, 5 µM [2]: 47.8 ×10⁻⁶ cm/s; efflux ratio at 120 min, 5 µM [2]: 1.4 |
| 6.49 ± 0.21 µM | <1.0% | CC(O)c1cccc(-c2ccc([N+](=O)[O-])c(NCc3ccccc3)c2)c1 (centres unmarked) [TRV 1129, 1-(3′-(benzylamino)-4′-nitrobiphenyl-3-yl)ethanol] |  |
| ~10 µM | <1.0% | O=C(c1ccccc1)N1CCN(c2ccc([N+](=O)[O-])c(N3CCCC3)c2)CC1 [TRV 1141, (4-(4-nitro-3-(pyrrolidin-1-yl)phenyl)piperazin-1-yl)(phenyl)methanone] |  |
| ~10 µM | 1.7% | O=C(c1ccccc1)N1CCN(c2ccc([N+](=O)[O-])c(NC3CC3)c2)CC1 [TRV 1142, (4-(3-(cyclopropylamino)-4-nitrophenyl)piperazin-1-yl)(phenyl)methanone] |  |
| 3.54 ± 0.46 µM | <1.0% | O=[N+]([O-])c1ccc(-c2cccc(CO)c2)cc1NCc1ccccc1 [TRV 1147] |  |
| ~50 µM |  | O=C(c1ccccc1)N1CCN(c2cc(F)c(F)c(NCc3ccccc3)c2)CC1 [TRV 1190, (4-(3-(benzylamino)-4,5-difluorophenyl)piperazin-1-yl)(phenyl)methanone] |  |
| < 50 µM |  | CC(O)c1cccc(-c2ccc(F)c(N3CCCC3)c2)c1 (centres unmarked) [TRV 1246] | inhibition at 50 µM (Aβ40): 56.8% |
